Data on 5 molecules can be found in publication PMC8154574 (Journal of Medicinal Chemistry, 2021).

The target in assay [1] is T1, hA2AAR (Homo sapiens, UniProt P29274). The following applies: label-free whole-cell assay, HEK293hA2AR.
The target in assay [2] is T1, hA2AAR. The note with it: 1 μM; all adenosine receptor subtypes.
The conditions of assay [3]: patients with heart failure; cited from earlier work.

T1 sequence (P29274 whole entry): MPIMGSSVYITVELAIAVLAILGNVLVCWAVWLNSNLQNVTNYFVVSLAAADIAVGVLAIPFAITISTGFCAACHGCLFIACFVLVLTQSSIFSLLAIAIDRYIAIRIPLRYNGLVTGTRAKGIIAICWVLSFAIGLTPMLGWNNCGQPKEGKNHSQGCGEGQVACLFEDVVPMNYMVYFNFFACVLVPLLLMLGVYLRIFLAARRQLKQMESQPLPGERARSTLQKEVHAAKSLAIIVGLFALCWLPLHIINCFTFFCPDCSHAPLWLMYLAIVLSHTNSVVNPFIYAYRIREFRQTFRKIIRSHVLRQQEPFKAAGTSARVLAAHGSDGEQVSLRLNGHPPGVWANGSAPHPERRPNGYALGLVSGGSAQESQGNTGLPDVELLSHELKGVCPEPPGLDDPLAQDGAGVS

Regarding `Nc1nc(SCc2ncc[nH]2)nc(-c2ccccc2)n1` [Compound 2, 4-(1H-Imidazol-2-yl)methylthio-6-phenyl-1,3,5-triazin-2-amine], the “functional behavior / intrinsic activity at hA2AAR” value in assay [1] is reported as “inverse agonism”.

Take `N#Cc1c(SCc2ncc[nH]2)nc(N)nc1-c1ccccc1` [Compound 3, 4-((1H-Imidazol-2-yl)methylthio)-2-amino-6-phenylpyrimidine-5-carbonitrile]: in assay [1], the “functional behavior / intrinsic activity at hA2AAR” value was “inverse agonist”.

On to `Nc1cc(-c2ccccc2)cc(SCc2ncc[nH]2)n1` [Compound 5, 6-(((1H-Imidazol-2-yl)methyl)thio)-4-phenylpyridin-2-amine], for which the “displacement of radioligand binding in preliminary single-concentration assays” value in assay [2] is on record as “no or negligible displacement”.

On to `N#Cc1c(-c2ccccc2)cc(N)nc1SCc1ncc[nH]1` [Compound 6, 2-(((1H-Imidazol-2-yl)methyl)thio)-6-amino-4-phenylnicotinonitrile], for which the “functional behavior / intrinsic activity at hA2AAR” value in assay [1] is “did not show any measurable degree of intrinsic activity”.

As to `N#Cc1c(SCc2csc(-c3ccc(Cl)cc3)n2)nc(N2CCCC2)c(C#N)c1-c1ccc(OCCO)cc1` [neladenoson], the “primary endpoint of phase 2b clinical trial” value in assay [3] is reported as “failed to meet the primary endpoint”.
